Data published in the supplement of paper PMC6470124.

Assays:
[1] = LC retention time (Atlantis T3, 5-95% MeOH gradient, 0.1% formic acid); higher = more retained / less polar
Procedure, shortened: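 Retention times were recorded for reference standards (purity ≥ 95%) on a polar reversed-phase C18 column (Atlantis T3, 3 × 150 mm, 3 μm) at 0.3 mL/min. Elution used water and methanol, each with 0.1% formic acid, in a gradient from 5 to 95% methanol over 17.5 min. Detection was by high-resolution tandem mass spectrometry on a QExactive Plus, with positive and negative electrospray in separate runs. Peaks were found and integrated in TraceFinder (5 ppm tolerance, at least three points per peak) and then checked by hand.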

[2] = absolute recovery over mixed-bed multilayer solid-phase extraction; higher = better recovery; conditions: enrichment method: SPE
Procedure, shortened: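 Wastewater (100–250 mL, adjusted to pH 6.5 and glass-fibre filtered) or 1000 mL unfiltered nanopure water was loaded on a three-layer mixed-bed cartridge and eluted with basic then acidic ethyl acetate/methanol. Standards were spiked before extraction, after it, or not at all, at 200 ng/L (water) or 1000 ng/L (wastewater), with class exceptions. Internal standards were added afterwards, then LC-HRMS/MS ran in both ionisation modes. Absolute recovery compares background-corrected response ratios of pre- versus post-spiked samples, averaged over at least two replicates.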

[3] = absolute recovery over vacuum-assisted evaporative concentration; higher = better recovery; conditions: enrichment method: VEC
Procedure, shortened: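 Standards were spiked into water samples before concentration, after concentration or not at all; volumes were 6 mL influent, 15 mL effluent and 60 mL surface or nanopure water. Spiking levels were 200 ng/L for nanopure and surface water and 1000 ng/L for wastewater, adjusted by class and compound. After evaporation at 55 °C and 20 mbar to about 0.3 mL, samples were brought to 0.4 mL, centrifuged, given internal standards and analysed by LC-HRMS/MS. Absolute recovery equals (response ratio pre − unspiked)/(post − unspiked) × 100, based on averages of ≥ 2 replicates.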

Row | absolute recovery ([2]; wastewater influent) | absolute recovery ([3]; wastewater effluent) | SMILES | LC retention time [1] | absolute recovery ([2]; nanopure water) | absolute recovery ([2]; surface water) | absolute recovery ([2]; wastewater effluent) | absolute recovery ([3]; wastewater influent)
1 | 89.8% | 103% | Cc1cc(C)nc([N-]S(=O)(=O)c2ccc(N)cc2)n1 [Sulfamethazin] | 12.1 min | 95.2% | 91.3% | 86.2% | 96.1%
2 | 66.1% | 96.4% | Cc1cc(N(C2OC(C(=O)[O-])C(O)C(O)C2O)S(=O)(=O)c2ccc(N)cc2)no1 (stereo not drawn) [Sulfamethoxazole-N1-Glucuronide] | 11.8 min | 86.9% | 21.3% | 49.2% | 70.3%
3 | 6.4% | 124% | Nc1ccc(S(=O)(=O)[O-])cc1 [Sulfanilic-acid] | 3.46 min | 10.3% | 3.8% | 4.2% | 96.5%
4 | 96.2% | 103% | Nc1ccc(S(=O)(=O)[N-]c2ccccn2)cc1 [Sulfapyridin] | 10.7 min | 98.5% | 93.6% | 88.1% | 95.5%
5 | 93.6% | 99.3% | Nc1ccc(S(=O)(=O)[N-]c2nccs2)cc1 [Sulfathiazol] | 10.4 min | 92.4% | 91.4% | 83.6% | 90.4%
6 | 93.3% | 101% | CC[NH+]1CCCC1CNC(=O)c1cc(S(N)(=O)=O)ccc1OC (stereo not drawn) [Sulpirid] | 8.45 min | 80.1% | 80.6% | 77.1% | 101%
7 | 143% | 75.3% | CC(C)CC(C)(O)C#CC(C)(O)CC(C)C (stereo not drawn) [Surfynol-104A] | 20.9 min | 86.2% |  | 73.8% | 70.8%
8 | 126% | 86.1% | CCCc1nc2c(C)cc(-c3nc4ccccc4n3C)cc2n1Cc1ccc(-c2ccccc2C(=O)[O-])cc1 [Telmisartan] | 17.1 min | 108% | 82.5% | 88.5% | 82.1%
9 |  | 105% | CC(Cn1cnc2c(N)ncnc21)OCP(=O)([O-])O (stereo not drawn) [Tenofovir] | 7.16 min | 70% |  | 1.9% | 114%
10 | 94.1% | 113% | CC(C)(C)Nc1nc(N)nc(O)n1 [Terbutylazin-desethyl-2-hydroxy] | 9.56 min | 89.9% | 102% | 96.7% | 85.2%
11 | 96.2% | 97.7% | CC(C)(C)Nc1nc(N)nc(Cl)n1 [Terbutylazin-desethyl] | 17.5 min | 88.2% | 97.5% | 95.8% | 104%
12 | 99.6% | 103% | COCCOCCOCCOCCOC [Tetraglyme] | 13.2 min | 80.5% | 83.7% | 83.5% | 112%
13 | 92.3% | 102% | c1ccc2[nH]c(-c3cscn3)nc2c1 [Thiabendazol] | 11.7 min | 79.2% | 77.5% | 81.8% | 105%
14 | 87% | 110% | COC(=O)c1csc(C)c1S(=O)(=O)[N-]C(=O)n1nc(OC)n(C)c1=O [Thiencarbazone] | 16.5 min | 104% | 93.9% | 92.6% | 106%
15 | 94.9% | 108% | CC[NH+](CC)CCNC(=O)c1cc(S(C)(=O)=O)ccc1OC [Tiaprid] | 9.13 min | 90.9% | 94.9% | 90.3% | 103%
16 | 81.1% | 51% | Clc1ccccc1C[NH+]1CCc2sccc2C1 [Ticlopidin] | 12.7 min | 83.9% | 85.9% | 84.5% | 45.4%
17 | 83.9% | 106% | CC(C)(C)[NH2+]CC(O)COc1nsnc1N1CCOCC1 (stereo not drawn) [Timolol] | 12.3 min | 82.7% | 83.1% | 86.3% | 103%
18 | 73.4% | 90.5% | Cc1cccc(N(C)C(=S)Oc2ccc3ccccc3c2)c1 [Tolnaftat] | 22 min | 63.9% | 98% | 75.8% | 92.4%
19 | 96% | 103% | Cc1cccc(Nc2ccncc2S(=O)(=O)[N-]C(=O)NC(C)C)c1 [Torasemid] | 15.6 min |  | 94.3% | 92.3% | 105%
20 | 92.3% | 105% | [O-][n+]1nc(-n2ccnc2)nc2ccc(Cl)cc21 [Triazoxide] | 17.5 min | 87.3% | 91.5% | 87.4% | 89%
21 | 61.3% | 86.4% | CSc1nc2cc(Oc3cccc(Cl)c3Cl)c(Cl)cc2[nH]1 [Triclabendazol] | 21.8 min | 59.4% | 111% | 88.5% | 102%
22 | 64.3% | 113% | O=C(Nc1ccc(Cl)cc1)Nc1ccc(Cl)c(Cl)c1 [Triclocarban] | 22 min | 57.9% | 118% | 91.3% | 112%

Row | SMILES | absolute recovery ([2]; wastewater influent) | absolute recovery ([3]; wastewater effluent) | LC retention time [1] | absolute recovery ([2]; nanopure water) | absolute recovery ([2]; surface water) | absolute recovery ([2]; wastewater effluent) | absolute recovery ([3]; wastewater influent)
23 | Cc1nn(-c2cc(NS(C)(=O)=O)c(Cl)cc2Cl)c(=O)n1C(F)F [Sulfentrazon] | 88.9% | 104% | 17.3 min | 97.5% | 100% | 92.9% | 107%
24 | CCS(=O)(=O)c1nc2ccccn2c1S(=O)(=O)[N-]C(=O)Nc1nc(OC)cc(OC)n1 [Sulfosulfuron] | 102% | 108% | 19.4 min | 101% | 94.4% | 94.6% | 98.9%
25 | CC(C)(C)C(O)(CCc1ccc(Cl)cc1)Cn1cncn1 (stereo not drawn) [Tebuconazol] | 94.3% | 106% | 20.9 min | 98.5% | 94.7% | 96% | 99.8%
26 | CCc1ccc(C(=O)NN(C(=O)c2cc(C)cc(C)c2)C(C)(C)C)cc1 [Tebufenozid] | 103% | 102% | 20.5 min | 104% | 111% | 98.7% | 98.1%
27 | CC(C)N(Cc1ccccc1)C(=O)C(C)(C)C [Tebutam] | 89.5% | 52.3% | 20.5 min | 85.7% | 88.7% | 81.3% | 46.1%
28 | CS(=O)(=O)c1ccc(C(=O)[C-]2C(=O)CCCC2=O)c(Cl)c1COCC(F)(F)F [Tembotrione] | 91.3% | 104% | 18.9 min | 91.7% | 89.4% | 90.9% | 116%
29 | CCC(=[NH+]OCC=CCl)C1=C([O-])CC(C2CCOCC2)CC1=O (stereo not drawn) [Tepraloxydim] |  | 114% | 19 min | 98.7% | 90.1% | 92.9% | 102%
30 | Cc1[nH]c(=O)n(C(C)(C)C)c(=O)c1Cl [Terbacil] | 97.2% | 102% | 17.6 min | 96.1% | 96% | 97.3% | 105%
31 | CCNc1nc(Cl)nc(NC(C)(C)C)n1 [Terbutylazin] | 93.4% | 95% | 19.7 min | 94.9% | 95% | 93.8% | 91.9%
32 | CN1C(=O)CN=C(C2=CCCCC2)c2cc(Cl)ccc21 [Tetrazepam] | 72.4% | 105% | 19.9 min | 86.9% | 63.8% | 64.4% | 100%
33 | NC(=O)N=C1SCCN1Cc1ccc(Cl)nc1 [Thiacloprid-amide] | 96.3% | 106% | 13.2 min | 109% | 108% | 104% | 104%
34 | N#CN=C1SCCN1Cc1ccc(Cl)nc1 [Thiacloprid] | 87.5% | 102% | 15.1 min | 97.8% |  | 96.9% | 106%
35 | CN1COCN(Cc2cnc(Cl)s2)C1=N[N+](=O)[O-] [Thiamethoxam] | 94.2% | 100% | 12.2 min | 98.4% | 93.9% | 96.3% | 105%
36 | COC(=O)c1sccc1S(=O)(=O)[N-]C(=O)Nc1nc(C)nc(OC)n1 [Thifensulfuron-methyl] | 92.3% | 104% | 16.7 min | 98.9% | 95% | 93.4% | 114%
37 | CCCC(C)C1(CC)C(=O)N=C([S-])NC1=O (stereo not drawn) [Thiopental] | 73.1% | 77.5% | 18.7 min | 49.9% | 83.4% | 66.9% | 82.5%
38 | CCOC(=O)C1(c2ccccc2)CCC=CC1[NH+](C)C (stereo not drawn) [Tilidine] | 83.5% | 70% | 12.6 min | 73.9% | 78.8% | 79.5% | 63.5%
39 | COc1cccc(C2(O)CCCCC2C[N+](C)(C)[O-])c1 (stereo not drawn) [Tramadol-N-oxide] | 95% | 104% | 12.7 min | 99.4% | 91.3% | 90.2% | 102%
40 | COc1cccc(C2(O)CCCCC2C[NH+](C)C)c1 (stereo not drawn) [Tramadol] | 91.6% | 82.8% | 12.2 min | 94.2% | 85.7% | 92% | 144%
41 | CC(C)(C)C(O)C(Oc1ccc(Cl)cc1)n1cncn1 (stereo not drawn) [Triadimenol-A] | 94.1% | 87.1% | 20 min | 98.4% | 83.6% | 85.5% | 97.4%
42 | COC(=O)c1ccccc1S(=O)(=O)[N-]C(=O)N(C)c1nc(C)nc(OC)n1 [Tribenuron-methyl] |  | 124% | 18.1 min |  | 24.9% | 38% | 119%
43 | Oc1cc(Cl)ccc1Oc1ccc(Cl)cc1Cl [Triclosan] | 92.3% |  | 21.9 min | 97.2% | 90.7% | 90% | 117%
44 | CCOP(=O)(OCC)OCC [Triethylphosphat] |  | 83.5% | 15.9 min | 76.6% | 87.7% | 81.5% | 79.6%
